Reference: ChEMBL document CHEMBL4765331, “Amides of pyrrole- and thiophene-fused anthraquinone derivatives: A role of the heterocyclic core in antitumor properties” (Eur J Med Chem, 2020)
Activity calls are given as the source filed them. No cut-off for these calls is given here.

Legend:
[1] = Toxicity in ip dosed BDF1 mouse xenografted with mouse P388 cells administered qd for 5 days; format: organism-based; conditions: in vivo, time 5 day
Calf thymus DNA [2] = experiment: Binding affinity to calf thymus DNA assessed as stoichiometry ratio of compound-DNA complex formation by scatchard plot analysis; conditions: Bos taurus
[3] = Selectivity index, ratio of IC50 for human TERT-RPE1 cells to IC50 for human CAPAN-1 cells
K562 [4] = experiment: Induction of apoptosis in human K562 cells assessed as viable cells at 1.6 uM measured after 48 hrs by Annexin V-APC/PI staining based flow cytometry assay (reference value: 85.9%); format: functional; conditions: read-out: Activity
K562 [5] = experiment: Induction of apoptosis in human K562 cells assessed as late apoptotic cells at 1.6 uM measured after 24 hrs by Annexin V-APC/PI staining based flow cytometry assay (reference value: […]); format: functional
Calf thymus DNA [6] = experiment: Binding affinity to calf thymus DNA assessed as binding constant by scatchard plot analysis; conditions: Bos taurus
Calf thymus DNA [7] = experiment: Binding affinity to calf thymus double stranded DNA at 10 uM measured after 5 mins by flourescence spectroscopy method; conditions: Bos taurus
Calf thymus DNA [8] = experiment: Binding affinity to calf thymus DNA assessed as DNA intercalation by measuring decrease of negative DNA band at 245 nm at 50 uM by circular dichroism spectral analysis; format: tissue-based; conditions: Bos taurus
[9] = Selectivity index, ratio of IC50 for human TERT-RPE1 cells to IC50 for human HL-60 cells; format: toxicity; conditions: TERT-RPE1 cells and HL-60 cells, read-out: Ratio IC50
[10] = Drug uptake in P-gp-positive/doxorubicin-resistant human K562/4 cells; format: ADME
[11] = Selectivity index, ratio of IC50 for human TERT-RPE1 cells to IC50 for human HCT-116 cells; format: toxicity; conditions: TERT-RPE1 cells and HCT-116 cells, read-out: Ratio IC50
TERT-RPE1 = experiment: Cytotoxicity against human TERT-RPE1 cells assessed as inhibition of cell proliferation measured after 72 hrs by MTT assay; format: cell-based; conditions: RPE-1, 72 h
K562 [12] = experiment: Induction of cell cycle arrest in human K562 cells assessed as accumulation at G2/M phase at 2XIC50 measured after 48 hrs by propidium iodide/RNase staining based flow cytometry; format: functional
K562 [13] = experiment: Induction of apoptosis in human K562 cells assessed as early apoptotic cells at 1.6 uM measured after 24 hrs by Annexin V-APC/PI staining based flow cytometry assay (reference value: 3.4%); format: functional
HCT-116 [14] = experiment: Antiproliferative activity against human HCT-116 cells with inactivated p53 gene assessed as inhibition of cell proliferation measured after 72 hrs by MTT assay; format: functional, cell-based; conditions: HCT-116, 72 h
[15] = biological target: T1, DNA topoisomerase 1 (Homo sapiens) (UniProt P11387); experiment: Inhibition of human topoisomerase 1-mediated relaxation of supercoiled plasmid using pBR322 plasmid as substrate at 40 uM measured after 30 mins by ethidium bromide dye based agarose gel electrophoresis method
T1 sequence (whole entry): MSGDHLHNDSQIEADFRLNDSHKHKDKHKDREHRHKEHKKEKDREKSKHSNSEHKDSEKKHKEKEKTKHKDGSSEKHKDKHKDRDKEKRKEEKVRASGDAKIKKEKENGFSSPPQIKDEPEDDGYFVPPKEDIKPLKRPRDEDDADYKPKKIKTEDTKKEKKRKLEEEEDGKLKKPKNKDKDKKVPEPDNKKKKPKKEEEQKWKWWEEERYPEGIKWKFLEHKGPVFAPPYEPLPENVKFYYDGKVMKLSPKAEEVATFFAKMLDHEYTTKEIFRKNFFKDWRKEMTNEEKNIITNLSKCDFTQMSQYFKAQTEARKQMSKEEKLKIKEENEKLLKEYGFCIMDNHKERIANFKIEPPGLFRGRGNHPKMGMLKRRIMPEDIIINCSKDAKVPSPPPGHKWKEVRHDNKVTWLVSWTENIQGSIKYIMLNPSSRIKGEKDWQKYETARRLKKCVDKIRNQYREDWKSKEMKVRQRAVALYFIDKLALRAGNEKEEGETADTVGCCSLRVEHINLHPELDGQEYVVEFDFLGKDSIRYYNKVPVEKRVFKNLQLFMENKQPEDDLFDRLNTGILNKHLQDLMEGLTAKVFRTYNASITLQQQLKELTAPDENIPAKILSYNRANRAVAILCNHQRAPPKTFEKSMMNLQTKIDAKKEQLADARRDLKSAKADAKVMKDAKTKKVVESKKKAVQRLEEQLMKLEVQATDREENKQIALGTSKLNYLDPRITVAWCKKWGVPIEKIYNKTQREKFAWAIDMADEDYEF

K562 [16] = experiment: Induction of oxidative stress in human K562 cells assessed as increase in intracellular ROS generation at 1.6 uM measured after 40 mins by Deep Red dye based flow cytometry method; format: functional, cell-based
[17] = Antiproliferative activity against P-gp-positive/doxorubicin-resistant human K562/4 cells assessed as inhibition of cell proliferation measured after 72 hrs by MTT assay; format: functional; conditions: K562/4, 72 h
[18] = Selectivity index, ratio of IC50 for human TERT-RPE1 cells to IC50 for human NCI-H460 cells; format: toxicity; conditions: TERT-RPE1 cells and NCI-H460 cells, read-out: Ratio IC50
[19] = Drug uptake in human K562i/S9 cells harboring exogenously expressed MDR1/Pgp; format: ADME, cell-based
K562 [20] = experiment: Induction of apoptosis in human K562 cells assessed as early apoptotic cells at 1.6 uM measured after 48 hrs by Annexin V-APC/PI staining based flow cytometry assay (reference value: 3.4%); format: functional
[21] = Selectivity index, ratio of IC50 for human TERT-RPE1 cells to IC50 for human K562 cells; format: toxicity; conditions: TERT-RPE1 cells and K562 cells, read-out: Ratio IC50
HL-60 = experiment: Antiproliferative activity against human HL-60 cells assessed as inhibition of cell proliferation measured after 72 hrs by MTT assay; format: functional, cell-based; conditions: HL-60, 72 h
Calf thymus DNA [22] = experiment: Binding affinity to calf thymus DNA assessed as dissociation constant by scatchard plot analysis; design: species or system Bos taurus
K562 [23] = experiment: Induction of apoptosis in human K562 cells assessed as viable cells at 1.6 uM measured after 24 hrs by Annexin V-APC/PI staining based flow cytometry assay (reference value: 85.9%); format: functional; conditions: read-out: Activity
K562 [24] = experiment: Induction of apoptosis in human K562 cells assessed as necrotic cells at 1.6 uM measured after 48 hrs by Annexin V-APC/PI staining based flow cytometry assay (reference value: 3.9%); format: functional
CAPAN-1 = experiment: Antiproliferative activity against human CAPAN-1 cells assessed as inhibition of cell proliferation measured after 72 hrs by MTT assay; format: functional, cell-based; conditions: CAPAN-1, 72 h
K562 [25] = experiment: Antiproliferative activity against human K562 cells assessed as inhibition of cell proliferation measured after 72 hrs by MTT assay; format: functional, cell-based; conditions: K562, 72 h
K562 [26] = experiment: Induction of apoptosis in human K562 cells assessed as necrotic cells at 1.6 uM measured after 24 hrs by Annexin V-APC/PI staining based flow cytometry assay (reference value: 3.9%); format: functional
HCT-116 [27] = experiment: Antiproliferative activity against human HCT-116 cells assessed as inhibition of cell proliferation measured after 72 hrs by MTT assay; format: functional, cell-based; conditions: HCT-116, 72 h
NCI-H460 = experiment: Antiproliferative activity against human NCI-H460 cells assessed as inhibition of cell proliferation measured after 72 hrs by MTT assay; format: functional, cell-based; conditions: NCI-H460, 72 h
K562 [28] = experiment: Induction of apoptosis in human K562 cells assessed as late apoptotic cells at 1.6 uM measured after 48 hrs by Annexin V-APC/PI staining based flow cytometry assay (reference value: […]); format: functional
[29] = Resistance index, ratio of IC50 for human P-gp-positive/Doxorubicin-resistant K562/4 cells to IC50 for human K562 cells; format: functional
[30] = Drug uptake in mouse NIH3T3 cells assessed as compound localization in cytoplasm at 1 uM measured after 15 mins by laser scanning microscope; format: ADME, subcellular; conditions: nih3t3, 0.25 h
K562 [31] = experiment: Induction of apoptosis in human K562 cells assessed as early apoptotic cells at 3.2 uM measured after 48 hrs by Annexin V-APC/PI staining based flow cytometry assay (reference value: 3.4%); format: functional
K562 [32] = experiment: Induction of cell cycle arrest in human K562 cells assessed as accumulation at subG1 phase at 2XIC50 measured after 24 hrs by propidium iodide/RNase staining based flow cytometry; format: functional
K562 [33] = experiment: Induction of apoptosis in human K562 cells assessed as necrotic cells at 3.2 uM measured after 48 hrs by Annexin V-APC/PI staining based flow cytometry assay (reference value: 3.9%); format: functional
K562 [34] = experiment: Induction of apoptosis in human K562 cells assessed as early apoptotic cells at 3.2 uM measured after 24 hrs by Annexin V-APC/PI staining based flow cytometry assay (reference value: 3.4%); format: functional
K562 [35] = experiment: Induction of apoptosis in human K562 cells assessed as viable cells at 3.2 uM measured after 48 hrs by Annexin V-APC/PI staining based flow cytometry assay (reference value: 85.9%); format: functional; conditions: read-out: Activity
K562 [36] = experiment: Induction of cell cycle arrest in human K562 cells assessed as accumulation at G2/M phase at 2XIC50 measured after 24 hrs by propidium iodide/RNase staining based flow cytometry; format: functional
[37] = Drug uptake in mouse NIH3T3 cells assessed as compound localization in mitochondria at 1 uM measured after 15 mins by Mitotracker Green FM dye based laser scanning microscope; format: ADME; conditions: nih3t3, 0.25 h
[38] = Drug uptake in mouse NIH3T3 cells assessed as compound localization in nucleus at 1 uM measured after 15 mins by laser scanning microscope; format: ADME, subcellular; conditions: nih3t3, 0.25 h
K562 [39] = experiment: Induction of apoptosis in human K562 cells assessed as late apoptotic cells at 3.2 uM measured after 48 hrs by Annexin V-APC/PI staining based flow cytometry assay (reference value: […]); format: functional
K562 [40] = experiment: Induction of apoptosis in human K562 cells assessed as late apoptotic cells at 3.2 uM measured after 24 hrs by Annexin V-APC/PI staining based flow cytometry assay (reference value: […]); format: functional
K562 [41] = experiment: Induction of apoptosis in human K562 cells assessed as necrotic cells at 3.2 uM measured after 24 hrs by Annexin V-APC/PI staining based flow cytometry assay (reference value: 3.9%); format: functional
K562 [42] = experiment: Induction of apoptosis in human K562 cells assessed as viable cells at 3.2 uM measured after 24 hrs by Annexin V-APC/PI staining based flow cytometry assay (reference value: 85.9%); format: functional; conditions: read-out: Activity
K562 [43] = experiment: Induction of oxidative stress in human K562 cells assessed as increase in intracellular ROS generation at 3.2 uM measured after 40 mins by Deep Red dye based flow cytometry method; format: functional, cell-based

| SMILES | Ratio (Calf thymus DNA [2]) | Ratio IC50 [3] | Kb (Calf thymus DNA [6]) | Activity (Calf thymus DNA [7]) | Activity (Calf thymus DNA [8]) | selectivity ratio [9] | Drug uptake [10] | selectivity ratio [11] | IC50 (TERT-RPE1) | Activity (K562 [12]) | IC50 (HCT-116 [14]) | inhibition [15] | IC50 [17] | selectivity ratio [18] | Drug uptake [19] | selectivity ratio [21] | IC50 (HL-60) | Kd (Calf thymus DNA [22]) | IC50 (CAPAN-1) | IC50 (K562 [25]) | other results |
| --- | --- | --- | --- | --- | --- | --- | --- | --- | --- | --- | --- | --- | --- | --- | --- | --- | --- | --- | --- | --- | --- |
| N[C@H]1CCN(C(=O)c2coc3c(O)c4c(c(O)c23)C(=O)c2ccccc2C4=O)C1 | 2 | 9 | 0.9 10^5/M | Active | Active | 9 | Active | 9 | 11100 nM | Active | 1300 nM | Active | 1400 nM | 9 | Active | 9 | 500 nM | 11000 nM | 300 nM | 900 nM | LD50 at 120 h [1]: 52 mg/kg; viability at 1.6 µM (K562 [4]): 51.9%; Activity (K562 [5]): 8.1%; Activity (K562 [13]): 1.3%; Activity (K562 [16]): Active; Activity (K562 [20]): 0.5%; viability at 1.6 µM (K562 [23]): 70%; Activity (K562 [24]): 38.6%; Activity (K562 [26]): 20.6%; IC50 (HCT-116 [27]): 1200 nM; IC50 (NCI-H460): 400 nM; Activity (K562 [28]): 9.1%; Ratio IC50 [29]: 1.5 |
| N[C@H]1CCN(C(=O)c2csc3c(O)c4c(c(O)c23)C(=O)c2ccccc2C4=O)C1 | 2 | 2 | 2 10^5/M | Active | Active | 2 | Active | 2 | 12900 nM | Active | 2200 nM | Active | 4300 nM | 2 | Active | 2 | 5500 nM | 5000 nM | 2100 nM | 1600 nM | Drug uptake [30]: Active; Activity (K562 [31]): 0.9%; Activity (K562 [32]): Active; Activity (K562 [33]): 35.1%; Activity (K562 [34]): 0.8%; viability at 3.2 µM (K562 [35]): 54.1%; Activity (K562 [36]): Active; Drug uptake [37]: Active; Drug uptake [38]: Active; Activity (K562 [39]): 9.9%; Activity (K562 [40]): 6.7%; IC50 (HCT-116 [27]): 1800 nM; IC50 (NCI-H460): 2100 nM; Activity (K562 [41]): 21.3%; viability at 3.2 µM (K562 [42]): 71.2%; Ratio IC50 [29]: 2.7; Activity (K562 [43]): Active |
